According to patent publication US10336697B2, “Spiro[cyclobutane-1,3′-indolin]-2′-one derivatives as bromodomain inhibitors” (Orion Corporation, priority 2015, dated 2019):

Target: Bet BRD4 full length bromo-domain protein (Homo sapiens, UniProt O60885)
Assay: Bet bromodomain TR-FRET assay (displacement of acetyl histone peptide)
Assay type: binding
Settings: Bet BRD4 full length bromodomain protein, 300 nM acetyl histone peptide substrate, read-out: IC50

Row | Structure (SMILES) | IC50 [µM]
1 | CN1CCCC(Nc2cc(NS(=O)(=O)c3ccc(F)cc3F)cc3c2NC(=O)C32CCC2)C1 (single isomer, unassigned) [Compound 35, 2,4-Difluoro-N-(7′-((1-methylpiperidin-3-yl)amino)-2′-oxospiro[cyclobutane-1,3′-indolin]-5′-yl)benzenesulfonamide] | 0.6 to 1
2 | O=C(NC1CCCNC1)c1cc(NS(=O)(=O)c2ccc(F)cc2F)cc2c1NC(=O)C21CCC1 (single isomer, unassigned) [Compound 67, 5′-(2,4-Difluorophenylsulfonamido)-2′-oxo-N-(piperidin-3-yl)spiro[cyclobutane-1,3′-indoline]-7′-carboxamide] | 0.6 to 1
3 | COc1ccccc1S(=O)(=O)Nc1cc(C(C)c2ccccc2)c2c(c1)C1(CCC1)C(=O)N2 (single isomer, unassigned) [Compound 115, 2-Methoxy-N-(2′-oxo-7′-(1-phenylethyl)spiro [cyclobutane-1,3′-indolin]-5′-yl)benzenesulfonamide] | 0.6 to 1
4 | COc1ccccc1S(=O)(=O)Nc1cc(OC(C)c2ccccn2)c2c(c1)C1(CCC1)C(=O)N2 (single isomer, unassigned) [Compound 150, 2-Methoxy-N-(2′-oxo-7′-(1-(pyridin-2-yl)ethoxy)spiro[cyclobutane-1,3′-indolin]-5′-yl)benzenesulfonamide] | 0.6 to 1
5 | CC(Oc1cc(NS(=O)(=O)c2ccc(Cl)cc2F)cc2c1NC(=O)C21CCC1)c1ccccn1 (single isomer, unassigned) [Compound 155, 4-Chloro-2-fluoro-N-(2′-oxo-7′-(1-(pyridin-2-yl)ethoxy)spiro[cyclobutane-1,3′-indolin]-5′-yl)benzenesulfonamide] | 0.6 to 1
6 | COc1ccccc1S(=O)(=O)Nc1cc(C(C)C2CCCN(C)C2)c2c(c1)C1(CCC1)C(=O)N2 (single isomer, unassigned) [Compound 173, 2-Methoxy-N-(7′-(1-(1-methylpiperidin-3-yl)ethyl)-2′-oxospiro[cyclobutane-1,3′-indolin]-5′-yl)benzenesulfonamide] | > 1
7 | COc1cc(-c2cc(NS(=O)(=O)c3ccc(F)cc3F)cc3c2NC(=O)C32CCC2)ccn1 [Compound 2, 2,4-Difluoro-N-(7′-(2-methoxypyridin-4-yl)-2′-oxospiro [cyclobutane-1,3′-indolin]-5′-yl)benzenesulfonamide] | 0.6 to 1
8 | COc1ccc(-c2cc(NS(=O)(=O)c3ccc(F)cc3F)cc3c2NC(=O)C32CCC2)cn1 [Compound 3, 2,4-Difluoro-N-(7′-(6-methoxypyridin-3-yl)-2′-oxospiro [cyclobutane-1,3′-indolin]-5′-yl)benzenesulfonamide] | 0.6 to 1
9 | CN1CCc2ccc(-c3cc(NS(=O)(=O)c4ccc(F)cc4F)cc4c3NC(=O)C43CCC3)cc2C1=O [Compound 6, 2,4-Difluoro-N-(7′-(2-methyl-1-oxo-1,2,3,4-tetrahydroisoquinolin-7-yl)-2′-oxospiro[cyclobutane-1,3′-indolin]-5′-yl)benzenesulfonamide] | 0.6 to 1
10 | O=C1Nc2c(-c3ccc4cn[nH]c4c3)cc(NS(=O)(=O)c3ccc(F)cc3F)cc2C12CCC2 [Compound 7, N-(7′-(1H-indazol-6-yl)-2′-oxospiro[cyclobutane-1,3′-indolin]-5′-yl)-2,4-difluorobenzenesulfonamide] | 0.6 to 1
11 | O=C1Nc2c(-c3ccc4nc[nH]c4c3)cc(NS(=O)(=O)c3ccc(F)cc3F)cc2C12CCC2 [Compound 8, N-(7′-(1H-benzo[d]imidazol-6-yl)-2′-oxospiro[cyclobutane-1,3′-indolin]-5′-yl)-2,4-difluorobenzenesulfonamide] | 0.6 to 1
12 | COc1ccccc1S(=O)(=O)Nc1cc(Cc2cccc(F)c2)c2c(c1)C1(CCC1)C(=O)N2 [Compound 10, N-(7′-(3-fluorobenzyl)-2′-oxospiro[cyclobutane-1,3′-indolin]-5′-yl)-2-methoxybenzenesulfonamide] | < 0.6
13 | C=C(c1ccccc1)c1cc(NS(=O)(=O)c2ccccc2OC)cc2c1NC(=O)C21CCC1 [Compound 11, 2-Methoxy-N-(2′-oxo-7′-(1-phenylvinyl)spiro[cyclobutane-1,3′-indolin]-5′-yl)benzenesulfonamide] | < 0.6
14 | COc1ccccc1S(=O)(=O)Nc1cc(N)c2c(c1)C1(CCC1)C(=O)N2 [Compound 12, N-(7′-amino-2′-oxospiro[cyclobutane-1,3′-indolin]-5′-yl)-2-methoxy-benzenesulfonamide] | < 0.6
15 | COc1ccccc1S(=O)(=O)Nc1cc(NCC2CC2)c2c(c1)C1(CCC1)C(=O)N2 [Compound 13, N-(7′-((cyclopropylmethyl)amino)-2′-oxospiro[cyclobutane-1,3′-indolin]-5′-yl)-2-methoxybenzenesulfonamide] | < 0.6
16 | C=CCCNc1cc(NS(=O)(=O)c2ccccc2OC)cc2c1NC(=O)C21CCC1 [Compound 14, N-(7′-(but-3-en-1-ylamino)-2′-oxospiro[cyclobutane-1,3′-indolin]-5′-yl)-2-methoxybenzenesulfonamide] | < 0.6
17 | Nc1cc(NS(=O)(=O)c2ccc(F)cc2F)cc2c1NC(=O)C21CCC1 [Compound 15, N-(7′-amino-2′-oxospiro[cyclobutane-1,3′-indolin]-5′-yl)-2,4-difluoro-benzenesulfonamide] | < 0.6
18 | CN1CCCC(Nc2cc(NS(=O)(=O)c3ccc(F)cc3F)cc3c2NC(=O)C32CCC2)C1 (centres unmarked) [Compound 16, 2,4-difluoro-N-(7′-((1-methylpiperidin-3-yl)amino)-2′-oxospiro [cyclobutane-1,3′-indolin]-5′-yl)benzenesulfonamide] | < 0.6
19 | CN1CCC(Nc2cc(NS(=O)(=O)c3ccc(F)cc3F)cc3c2NC(=O)C32CCC2)CC1 [Compound 17, 2,4-Difluoro-N-(7′-((1-methylpiperidin-4-yl)amino)-2′-oxospiro[cyclobutane-1,3′-indolin]-5′-yl)benzenesulfonamide] | < 0.6
20 | O=C1Nc2c(NC3CCOCC3)cc(NS(=O)(=O)c3ccc(F)cc3F)cc2C12CCC2 [Compound 18, 2,4-Difluoro-N-(2′-oxo-7′-((tetrahydro-2H-pyran-4-yl)amino)spiro[cyclobutane-1,3′-indolin]-5′-yl)benzenesulfonamide] | < 0.6
21 | O=C1Nc2c(NC3CN4CCC3CC4)cc(NS(=O)(=O)c3ccc(F)cc3F)cc2C12CCC2 (centres unmarked) [Compound 19, 2,4-Difluoro-N-(2′-oxo-7′-(quinuclidin-3-ylamino)spiro[cyclobutane-1,3′-indolin]-5′-yl)benzenesulfonamide] | < 0.6

Second part, the compound after the results:

Row | IC50 [µM] | Structure (SMILES)
22 | < 0.6 | CN1CCCC(Nc2cc(NS(=O)(=O)c3ccc(F)cc3F)cc3c2NC(=O)C32CCC2)C1 (single isomer, unassigned) [Compound 34, 2,4-Difluoro-N-(7′-((1-methylpiperidin-3-yl)amino)-2′-oxospiro[cyclobutane-1,3′-indolin]-5′-yl)benzenesulfonamide]
23 | < 0.6 | O=C(NC1CCCNC1)c1cc(NS(=O)(=O)c2ccc(F)cc2F)cc2c1NC(=O)C21CCC1 (single isomer, unassigned) [Compound 68, 5′-(2,4-Difluorophenylsulfonamido)-2′-oxo-N-(piperidin-3-yl)spiro[cyclobutane-1,3′-indoline]-7′-carboxamide]
24 | < 0.6 | COc1ccccc1S(=O)(=O)Nc1cc(C(C)c2ccccc2)c2c(c1)C1(CCC1)C(=O)N2 (single isomer, unassigned) [Compound 114, 2-Methoxy-N-(2′-oxo-7′-(1-phenylethyl)spiro [cyclobutane-1,3′-indolin]-5′-yl)benzenesulfonamide]
25 | < 0.6 | COc1ccccc1S(=O)(=O)Nc1cc(OC(C)c2ccccn2)c2c(c1)C1(CCC1)C(=O)N2 (single isomer, unassigned) [Compound 151, 2-Methoxy-N-(2′-oxo-7′-(1-(pyridin-2-yl)ethoxy)spiro[cyclobutane-1,3′-indolin]-5′-yl)benzenesulfonamide]
26 | < 0.6 | COc1ccccc1S(=O)(=O)Nc1cc(OC(C)c2cccnc2)c2c(c1)C1(CCC1)C(=O)N2 (single isomer, unassigned) [Compound 152, 2-methoxy-N-(2′-oxo-7′-(1-(pyridin-3-yl)ethoxy)spiro[cyclobutane-1,3′-indolin]-5′-yl)benzenesulfonamide]
27 | < 0.6 | CC(Oc1cc(NS(=O)(=O)c2ccc(Cl)cc2F)cc2c1NC(=O)C21CCC1)c1ccccn1 (single isomer, unassigned) [Compound 156, 4-Chloro-2-fluoro-N-(2′-oxo-7′-(1-(pyridin-2-yl)ethoxy)spiro[cyclobutane-1,3′-indolin]-5′-yl)benzenesulfonamide]
28 | < 0.6 | COc1ccccc1S(=O)(=O)Nc1cc(OC2CCN(C)CC2F)c2c(c1)C1(CCC1)C(=O)N2 (single isomer, unassigned) [compound 191, N-(7′-((3-fluoro-1-methylpiperidin-4-yl)oxy)-2′-oxospiro[cyclobutane-1,3′-indolin]-5′-yl)-2-methoxybenzenesulfonamide]
29 | < 0.6 | O=C1Nc2c(-c3cccc(O)c3)cc(NS(=O)(=O)c3ccc(F)cc3F)cc2C12CCC2 [Compound 1, 2,4-difluoro-N-(7′-(3-hydroxyphenyl)-2′-oxospiro[cyclobutane-1,3′-indolin]-5′-yl)benzenesulfonamide]
30 | < 0.6 | O=C1NCCc2ccc(-c3cc(NS(=O)(=O)c4ccc(F)cc4F)cc4c3NC(=O)C43CCC3)cc21 [Compound 4, 2,4-Difluoro-N-(2′-oxo-7′-(1-oxo-1,2,3,4-tetrahydroisoquinolin-7-yl)spiro[cyclobutane-1,3′-indolin]-5′-yl)benzenesulfonamide]
31 | < 0.6 | Cn1cnc2ccc(-c3cc(NS(=O)(=O)c4ccc(F)cc4F)cc4c3NC(=O)C43CCC3)cc21 [Compound 5, 2,4-Difluoro-N-(7′-(1-methyl-1H-benzo[d]imidazol-6-yl)-2′-oxospiro[cyclobutane-1,3′-indolin]-5′-yl)benzene sulphonamide]
32 | < 0.6 | COc1ccccc1S(=O)(=O)Nc1cc(Cc2ccccc2F)c2c(c1)C1(CCC1)C(=O)N2 [Compound 9, N-(7′-(2-fluorobenzyl)-2′-oxospiro[cyclobutane-1,3′-indolin]-5′-yl)-2-methoxybenzenesulfonamide]
